US20140242707A1, “Compositions and Methods for Diagnosing Hypercoagulability and Hypocoagulability” (Philadelphia Health & Education Corporation d/b/a Drexel …, priority 2011, published 2014)
Read-outs that look alike come from different tables or passages of the source.

How the values were obtained:
[1] = test system: Patient plasma; pooled normal plasma; test: Thrombelastography of Heartmate II VAD patient plasma and pooled normal plasma; assay type: biochemical, human; details: for change in clot strength (TTG) compared to normal plasma: VAD patient plasma, 100 μM CORM-2 or 30 mM PHA
Description: Shortly after induction of anesthesia and invasive monitoring placement, whole blood was collected from the patient's radial arterial catheter and immediately anticoagulated with sodium citrate (9 parts blood:1 part 0.105M sodium citrate). The blood was immediately centrifuged at 3000×g at room temperature, with plasma aliquoted and stored at −80° C. prior to thrombelastographic analyses subsequently described. Operation proceeded, with VAD replacement followed by discharge from the hospital three weeks later.
Patient plasma was subjected to thrombelastographic analysis for 30 min at 37° C. as previously described (Nielsen et al., 2009, Blood Coagul Fibrinolysis, 20: 377-380; Nielsen et al., 2011, Blood Coagul Fibrinolysis, 22: 657-661). Also, for qualitative/semi-quantitative comparison, four replicate samples of citrated, pooled normal plasma (George King Bio-Medical, Overland Park, Kans., USA) were subjected to identical thrombelastographic analyses. In brief, the final volume for all subsequently described plasma sample mixtures was 359.6 Sample composition consisted of 326 μl of plasma; 10 μl of tissue factor reagent (0.1% final concentration in dH2O; Diagnostica Stago S.A.S., Asnieres sur Seine, France), 3.6 μl of dH2O or dH2O containing the organic reductant phenylhydroxylamine (PHA, 30 mM final concentration, Sigma-Aldrich, Saint Louis, Mo., USA), or 3.6 μl of CORM-2 (100 μM final concentration; Sigma-Aldrich) and 20 μl of 200 mM CaCl2. The addition of CORM-2 determines if there are heme groups unbound by CO in plasma by increasing coagulation kinetics (Nielsen et al., 2011, Blood Coagul Fibrinolysis, 22: 657-661). PHA at this concentration rapidly converts heme-attached Fe^+2 to Fe^+3, the met-state, displacing CO and decreasing coagulation (Nielsen et al., 2011, Blood Coagul Fibrinolysis, 22: 657-661). […] Thrombelastographic variables previously described (Nielsen et al., 2009, Blood Coagul Fibrinolysis, 20: 377-380; Nielsen et al., 2011, Blood Coagul Fibrinolysis, 22: 657-661) were determined, and the results are depicted in FIG. 7 and FIG. 8.

[2] = test system: Smoker and normal subject plasma; test: Thrombelastography of smoker and normal subject plasma (COHF assay); assay type: biochemical, human; details: for final elastic modulus (G), within group vs Control: smoker and normal plasma, 100 μM CORM-2 or 30 mM PHA
Description: Smoking subjects, free of thrombotic or hemorrhagic disease, between the ages of 19 to 50 years of age were recruited (n=20). All comparative data are presented as mean±SD. The male:female ratio (M:F) was 14:6, and the smoking group's age was 32.8±8.7 years. This cohort smoked 1.0±0.4 packs of cigarettes per day. After written consent was obtained, the smoking subjects verified that they had smoked two cigarettes within 90 minutes prior to presentation as they would ordinarily do during the day. Noninvasive pulse oximetry was performed, with COHb found to be 5.0±2.7% for the smoking cohort. Whole blood was obtained from the smokers via venipuncture of an antecubital or hand vein and was anticoagulated with sodium citrate (9 parts blood to 1 part citrate). The blood was immediately centrifuged at 3000×g for 15 minutes at room temperature, with plasma decanted, aliquoted and stored at −80° C. prior to experimentation. Frozen, citrated plasma collected from 20 nonsmoking, age-matched normal subjects (30.7±8.7 years, M:F of 10:10) was obtained from a commercial source. Smoker and normal subject plasma was thawed and subjected to thrombelastographic analyses as previously described for 15 min at 37° C. (Nielsen et al., 2011, Blood Coagul Fibrinolysis, 22: 657-661). […] This pattern of enhanced clot development without decreased time to onset of coagulation is typical of CO exposure (Nielsen et al., 2009, Blood Coagul Fibrinolysis, 20: 377-380; Nielsen et al., 2010, Blood Coagul Fibrinolysis, 21: 349-353; Nielsen et al., 2011, Blood Coagul Fibrinolysis, 22: 657-661). […] Using a modification of the previously described assay (Nielsen et al., 2011, Blood Coagul Fibrinolysis, 22: 657-661), hypercoagulability was defined as a G value 95% confidence interval value of the normal cohort (2720 dynes/cm^2). For COHF likely to be present, G values had to increase≦the average percent seen in normal subjects (≦78%) in the presence of CORM-2, and G values had to decrease≦the average normal percent (≦74%) in the presence of PHA. Using these definitions, 10 smokers were hypercoagulable; 9 smokers had kinetically detectable COHF; and 5 were both hypercoagulable and COHF positive (25% of the cohort). Of interest, 3 smokers had neither hypercoagulability nor detectable COHF (15% of the cohort), with the remaining 12 smokers either hypercoagulable only or COHF positive only (60% of the population). […]

human or rabbit plasma = details: 100 μM CORM-2, humans or rabbits; cited from earlier work
human plasma = details: fibrinolytic environment; cited from earlier work
ear bleeding time = details: CORM-2 intravenously, cited from earlier work

SMILES	change in clot strength (TTG) compared to normal plasma [1]	change in clot strength (TTG) ([1]; normal pooled plasma, 100 μM CORM-2)	average percent increase in G ([2]; normal subjects, 100 μM CORM-2) [%]	final elastic modulus (G), within group vs Control [2]	increase in MRTG (human or rabbit plasma)	increase in TTG (human or rabbit plasma)	increase in MRTG (human plasma) [%]	increase in TTG (human plasma) [%]	ear bleeding time (ear bleeding time; rabbits administered intravenous tPA)	ear bleeding time (ear bleeding time; rabbits with platelet inhibition by aspirin and clopidogrel)	average percent decrease in G ([2]; normal subjects, 30 mM PHA) [%]	decrease in MRTG (human plasma) [%]	decrease in TTG (human plasma) [%]
[C-]#[O+].[C-]#[O+].[C-]#[O+].[C-]#[O+].[C-]#[O+].[C-]#[O+].[Cl][Ru][Cl].[Cl][Ru][Cl] [CORM-2, tricarbonyldichlororuthenium (II) dimer]	markedly decreased response	typical increase	78	significantly increased	64-100%	51-68%	120	113	near normal	normal	–	–	–
ONc1ccccc1 [PHA, phenylhydroxylamine]	greater decrease	–	–	significantly decreased	–	–	–	–	–	–	74	30	21
